These results are taken from US20150291593A1, “NOVEL HETEROARYL AND HETEROCYCLE COMPOUNDS, COMPOSITIONS AND METHODS” (HUTCHISON MEDIPHARMA LIMITED, priority 2012, published 2015).

pIC50: −log10 of the molar value.

As usually defined, the pIC50 is the negative decadic logarithm of the IC50, by convention in mol/L.

Assay [1] addresses T1, p110β/p85α (Homo sapiens, UniProt P42338).
T1 construct: purchased Millipore
As to the kind of experiment: Transcreener KINASE Assay, kinase inhibition of p110β/p85α. In kind it is biochemical. The settings on record: @ 1 uM. The essentials:
(§1)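 Recombinant PI3K/p85α heterodimers were incubated with compound (2% DMSO final) for 80 min at room temperature in 50 mM HEPES, 100 mM NaCl, 1 mM EGTA, 0.03% CHAPS, 3 mM MgCl2, 1 mM DTT, with substrate added as a 30 uM PIP2/10 uM ATP mix. ADP was detected by competitive fluorescence polarization immunoassay.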

The target in assay [2] is T2, p110γ (Homo sapiens, UniProt P48736).
T2 construct: purchased Invitrogen
As to the kind of experiment: Transcreener KINASE Assay, kinase inhibition of p110γ. In kind it is biochemical. The essentials:
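Recombinant human PI3K complexes (p110α/p85α, p110β/p85α, p110δ/p85α, p110γ) assayed by ADP detection via competitive far-red fluorescence polarization immunoassay.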

In assay [3] the target is T3, p110α/p85α (Homo sapiens, UniProt P42336).
T3 construct: purchased Invitrogen
As to the kind of experiment: Transcreener KINASE Assay, kinase inhibition of p110α/p85α. In kind it is biochemical. As to conditions: @ 1 uM. Here is the method:
PI3K kinases including p110α/p85α, p110δ/p85α and p110γ are purchased from Invitrogen, and p110β/p85α is from Millipore.
Primary screening data and IC50 values are measured using Transcreener™ KINASE Assay (Bellbrook, Catalog #3003-10K). […] It is a universal, homogenous, high throughput screening (HTS) technology using a far-red, competitive fluorescence polarization immunoassay based on the detection of ADP to monitor the activity of enzymes that catalyze group transfer reactions. Briefly, the Transcreener KINASE Assay is designed as a simple two-part, endpoint assay.
In the first step, the 25 ul kinase reaction is performed by preparing a reaction mixture containing 5 ul test compound (2% DMSO final concentration), 10 ul kinase, buffer (50 mM HEPES, 100 mM NaCl, 1 mM EGTA, 0.03% CHAPS, 3 mM MgCl2, and freshly supplemented 1 mM DTT), and 10 ul 30 uM PIP2/10 uM ATP. The plate is sealed and incubated for 80 min at room temperature. Next, 25 ul ADP detection mix is added per well. The plate is sealed again and incubated for 60 min at room temperature, and then measure fluorescence polarization by Tecan Infinite F500 Reader.
Data is analyzed and IC50s are generated using the add-in software for Microsoft Excel, Xlfit™ (version 2.0). IH %=(ADP amount under 2% DMSO-ADP amount under test compound)/ADP amount under 2% DMSO.

In assay [4] the target is T4, PI3Kγ (Mus musculus, UniProt Q9JHG7).
T4 construct: endogenous in cells; host or cells: Raw264.7 macrophage cells
In words: Acumen Assay - Raw264.7 p-AKT Assay (C5a stimulated). The assay is classed as cell-based. The settings on record: Raw264.7 macrophage cells, compound 30 min, 10 nM C5a 5 min, p-AKT (Ser473) readout; read-out: PI3Kγ cell-C5a Raw264.7 IC50. As to the method:
Acumen® eX3 (A Mμltilaser Microplate Cytometer For Enhanced High Content Screening): TTP LabTech
3×10^4 Raw264.7 macrophage cells were seeded into 96-well plates with DMEM+10% heat-inactivated FBS at […], 90 ul/well, overnight. After starvation for 3 hr at 37° C. under 5% CO2, Raw264.7 cells were treated with 10 ul/well various concentrations of compound or 0.5% DMSO for 30 min, and then stimulated with 10 ul/well 10 nM C5a for 5 min.
1.) Cells were fixed 110 μL of 4% pre-warmed Paraformaldehyde (2% final), incubate for 45 min at room temperature.
2.) Remove paraformaldehyde solution. Add 100 μL of ice-cold 0.1% Triton X-100 in PBS and leave at 4° C. for 30 min.
3.) Wash once in 100 μL PBS.
4.) Incubate with 100 μL blocking buffer (1% BSA, in PBS) for 2 hours at room temperature.
5.) Wash once for 5 min with 100 ul PBS.
6.) Incubate with 40 μL 1:200 dilution of phospho AKT (Ser473) rabbit antibody in antibody dilution buffer (0.1% BSA, in PBS) overnight at 4° C.
7.) Wash for 3 times for 10 min with 100 ul PBS.
8.) Incubate for 90 min at room temperature with 50 μL of goat anti-rabbit Alex488 antibody at a 1:1,000 dilution in antibody dilution buffer (0.1% BSA, in PBS). Cover plate in foil to keep out of light.
9.) Wash for 3 times for 10 min with 100 μL PBS.
10.) Add 50 μL of 1.5 μM Propidium Iodide solution to each well to determine cell number at a 1:1,000 dilution in PBS (stock: 1.5 mM).
11.) Incubate at room temperature for 30 min.
12.) Seal the plate with a black cover-seal (supplied with plate).
13.) Load the plate into the Acumen Explorer and scan with the appropriate instrument settings.

In assay [5] the target is T5, p110δ/p85α (Homo sapiens, UniProt O00329).
T5 construct: purchased Invitrogen
As to the kind of experiment: Transcreener KINASE Assay, kinase inhibition of p110δ/p85α. In kind it is biochemical. The essentials:
as §1

T2 sequence (P48736 whole entry, species assumed): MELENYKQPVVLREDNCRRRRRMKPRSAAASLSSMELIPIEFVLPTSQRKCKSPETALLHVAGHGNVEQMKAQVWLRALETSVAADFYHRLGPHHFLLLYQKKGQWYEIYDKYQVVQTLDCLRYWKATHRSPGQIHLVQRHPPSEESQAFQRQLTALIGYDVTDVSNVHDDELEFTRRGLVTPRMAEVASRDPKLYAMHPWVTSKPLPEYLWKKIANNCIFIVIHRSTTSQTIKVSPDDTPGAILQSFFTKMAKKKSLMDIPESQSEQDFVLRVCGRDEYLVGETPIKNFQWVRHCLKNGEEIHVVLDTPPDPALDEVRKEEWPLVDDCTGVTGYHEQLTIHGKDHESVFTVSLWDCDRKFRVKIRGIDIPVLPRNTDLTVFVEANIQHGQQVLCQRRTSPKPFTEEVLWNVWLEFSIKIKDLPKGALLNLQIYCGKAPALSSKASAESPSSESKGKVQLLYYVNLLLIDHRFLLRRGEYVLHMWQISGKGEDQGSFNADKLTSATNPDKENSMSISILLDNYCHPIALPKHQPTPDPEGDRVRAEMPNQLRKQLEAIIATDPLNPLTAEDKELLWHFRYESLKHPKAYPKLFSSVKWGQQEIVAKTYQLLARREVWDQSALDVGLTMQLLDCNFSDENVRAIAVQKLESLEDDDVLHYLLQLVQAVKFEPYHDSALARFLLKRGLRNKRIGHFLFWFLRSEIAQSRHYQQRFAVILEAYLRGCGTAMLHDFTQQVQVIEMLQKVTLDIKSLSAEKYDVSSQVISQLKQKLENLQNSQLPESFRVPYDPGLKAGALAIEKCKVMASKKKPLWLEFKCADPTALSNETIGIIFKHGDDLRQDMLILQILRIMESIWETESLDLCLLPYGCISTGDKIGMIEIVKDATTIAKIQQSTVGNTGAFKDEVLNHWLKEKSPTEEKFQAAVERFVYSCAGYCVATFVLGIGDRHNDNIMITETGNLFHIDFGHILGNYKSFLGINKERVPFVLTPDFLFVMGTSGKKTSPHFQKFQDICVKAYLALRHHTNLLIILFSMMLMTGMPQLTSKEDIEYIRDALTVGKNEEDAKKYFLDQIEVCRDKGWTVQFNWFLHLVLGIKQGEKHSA
T5 sequence (O00329 whole entry, species assumed): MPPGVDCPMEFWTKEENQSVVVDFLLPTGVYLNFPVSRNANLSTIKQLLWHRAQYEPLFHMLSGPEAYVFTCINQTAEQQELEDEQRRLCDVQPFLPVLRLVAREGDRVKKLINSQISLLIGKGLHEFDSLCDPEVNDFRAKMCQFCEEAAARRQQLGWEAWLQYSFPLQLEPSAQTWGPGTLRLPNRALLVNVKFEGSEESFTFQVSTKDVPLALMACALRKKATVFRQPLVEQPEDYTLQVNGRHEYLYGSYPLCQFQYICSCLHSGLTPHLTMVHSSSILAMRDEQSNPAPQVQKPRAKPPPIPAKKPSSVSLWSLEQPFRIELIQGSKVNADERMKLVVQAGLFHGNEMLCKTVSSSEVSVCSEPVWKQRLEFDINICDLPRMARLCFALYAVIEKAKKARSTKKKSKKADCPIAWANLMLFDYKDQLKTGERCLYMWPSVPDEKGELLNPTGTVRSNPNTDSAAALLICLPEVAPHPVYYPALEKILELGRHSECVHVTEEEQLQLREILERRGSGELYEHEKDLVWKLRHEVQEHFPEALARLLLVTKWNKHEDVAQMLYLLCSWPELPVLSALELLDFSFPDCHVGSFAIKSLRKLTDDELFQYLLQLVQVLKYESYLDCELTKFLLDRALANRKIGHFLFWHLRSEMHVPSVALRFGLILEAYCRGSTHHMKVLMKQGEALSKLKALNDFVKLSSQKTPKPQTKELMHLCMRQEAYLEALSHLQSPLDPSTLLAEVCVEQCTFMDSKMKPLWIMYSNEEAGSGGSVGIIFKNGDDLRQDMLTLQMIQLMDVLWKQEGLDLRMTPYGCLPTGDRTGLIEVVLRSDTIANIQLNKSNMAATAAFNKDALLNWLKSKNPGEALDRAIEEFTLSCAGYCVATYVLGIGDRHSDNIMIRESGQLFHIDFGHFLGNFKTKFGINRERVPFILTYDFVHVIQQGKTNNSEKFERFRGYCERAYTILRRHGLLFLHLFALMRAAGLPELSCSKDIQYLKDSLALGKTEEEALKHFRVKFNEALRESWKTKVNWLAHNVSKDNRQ
T5 sequence (P27986 whole entry partner, species assumed): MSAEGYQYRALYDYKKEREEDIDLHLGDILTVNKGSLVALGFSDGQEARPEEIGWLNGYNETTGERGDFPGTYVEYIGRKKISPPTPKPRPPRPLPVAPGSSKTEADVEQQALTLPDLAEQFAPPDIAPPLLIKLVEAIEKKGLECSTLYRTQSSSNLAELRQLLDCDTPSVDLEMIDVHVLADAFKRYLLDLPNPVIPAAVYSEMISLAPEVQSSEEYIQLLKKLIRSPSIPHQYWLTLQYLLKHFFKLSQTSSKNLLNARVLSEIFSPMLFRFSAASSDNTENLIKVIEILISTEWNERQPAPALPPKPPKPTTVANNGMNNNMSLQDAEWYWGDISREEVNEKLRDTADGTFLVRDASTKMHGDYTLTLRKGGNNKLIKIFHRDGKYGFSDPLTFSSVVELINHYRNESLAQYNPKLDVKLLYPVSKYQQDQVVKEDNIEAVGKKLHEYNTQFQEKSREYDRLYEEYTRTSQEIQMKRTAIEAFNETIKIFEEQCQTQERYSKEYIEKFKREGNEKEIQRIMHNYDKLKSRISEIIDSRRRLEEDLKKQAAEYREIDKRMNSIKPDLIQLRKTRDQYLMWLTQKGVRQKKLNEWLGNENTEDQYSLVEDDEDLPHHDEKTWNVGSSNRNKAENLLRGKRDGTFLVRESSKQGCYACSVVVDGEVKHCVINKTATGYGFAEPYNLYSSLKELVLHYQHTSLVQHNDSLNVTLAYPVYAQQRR
T1 sequence (P42338 whole entry, species assumed): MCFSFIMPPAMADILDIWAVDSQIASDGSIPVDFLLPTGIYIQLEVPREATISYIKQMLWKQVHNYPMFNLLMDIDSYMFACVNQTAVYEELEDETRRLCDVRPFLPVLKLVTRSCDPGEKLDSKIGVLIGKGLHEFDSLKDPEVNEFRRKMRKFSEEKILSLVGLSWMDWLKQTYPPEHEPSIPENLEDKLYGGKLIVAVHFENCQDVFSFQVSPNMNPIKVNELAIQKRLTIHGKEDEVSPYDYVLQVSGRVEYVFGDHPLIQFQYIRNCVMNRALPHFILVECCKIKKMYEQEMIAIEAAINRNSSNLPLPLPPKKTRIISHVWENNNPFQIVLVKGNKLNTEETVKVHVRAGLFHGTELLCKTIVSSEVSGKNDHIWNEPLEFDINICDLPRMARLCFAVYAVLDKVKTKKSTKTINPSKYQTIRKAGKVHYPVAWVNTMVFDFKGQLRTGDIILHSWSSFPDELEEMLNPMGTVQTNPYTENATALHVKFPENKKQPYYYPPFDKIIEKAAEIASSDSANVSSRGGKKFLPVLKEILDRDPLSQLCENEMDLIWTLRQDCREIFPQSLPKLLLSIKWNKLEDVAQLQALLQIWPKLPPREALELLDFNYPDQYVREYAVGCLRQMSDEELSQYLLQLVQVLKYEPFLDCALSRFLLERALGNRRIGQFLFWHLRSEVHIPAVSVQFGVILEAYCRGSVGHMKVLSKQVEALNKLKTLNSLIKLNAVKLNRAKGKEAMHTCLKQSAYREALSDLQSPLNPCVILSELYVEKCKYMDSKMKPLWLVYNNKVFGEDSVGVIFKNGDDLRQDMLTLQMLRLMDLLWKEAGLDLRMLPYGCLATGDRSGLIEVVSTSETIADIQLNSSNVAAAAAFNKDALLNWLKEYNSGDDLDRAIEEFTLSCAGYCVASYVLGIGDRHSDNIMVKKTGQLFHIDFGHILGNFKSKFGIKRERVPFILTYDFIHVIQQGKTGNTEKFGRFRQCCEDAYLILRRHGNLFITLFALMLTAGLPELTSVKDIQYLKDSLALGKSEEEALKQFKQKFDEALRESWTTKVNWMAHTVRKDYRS
T1 sequence (P27986 whole entry partner, species assumed): as the sequence (P27986 whole entry partner, species assumed) above
T3 sequence (P42336 whole entry, species assumed): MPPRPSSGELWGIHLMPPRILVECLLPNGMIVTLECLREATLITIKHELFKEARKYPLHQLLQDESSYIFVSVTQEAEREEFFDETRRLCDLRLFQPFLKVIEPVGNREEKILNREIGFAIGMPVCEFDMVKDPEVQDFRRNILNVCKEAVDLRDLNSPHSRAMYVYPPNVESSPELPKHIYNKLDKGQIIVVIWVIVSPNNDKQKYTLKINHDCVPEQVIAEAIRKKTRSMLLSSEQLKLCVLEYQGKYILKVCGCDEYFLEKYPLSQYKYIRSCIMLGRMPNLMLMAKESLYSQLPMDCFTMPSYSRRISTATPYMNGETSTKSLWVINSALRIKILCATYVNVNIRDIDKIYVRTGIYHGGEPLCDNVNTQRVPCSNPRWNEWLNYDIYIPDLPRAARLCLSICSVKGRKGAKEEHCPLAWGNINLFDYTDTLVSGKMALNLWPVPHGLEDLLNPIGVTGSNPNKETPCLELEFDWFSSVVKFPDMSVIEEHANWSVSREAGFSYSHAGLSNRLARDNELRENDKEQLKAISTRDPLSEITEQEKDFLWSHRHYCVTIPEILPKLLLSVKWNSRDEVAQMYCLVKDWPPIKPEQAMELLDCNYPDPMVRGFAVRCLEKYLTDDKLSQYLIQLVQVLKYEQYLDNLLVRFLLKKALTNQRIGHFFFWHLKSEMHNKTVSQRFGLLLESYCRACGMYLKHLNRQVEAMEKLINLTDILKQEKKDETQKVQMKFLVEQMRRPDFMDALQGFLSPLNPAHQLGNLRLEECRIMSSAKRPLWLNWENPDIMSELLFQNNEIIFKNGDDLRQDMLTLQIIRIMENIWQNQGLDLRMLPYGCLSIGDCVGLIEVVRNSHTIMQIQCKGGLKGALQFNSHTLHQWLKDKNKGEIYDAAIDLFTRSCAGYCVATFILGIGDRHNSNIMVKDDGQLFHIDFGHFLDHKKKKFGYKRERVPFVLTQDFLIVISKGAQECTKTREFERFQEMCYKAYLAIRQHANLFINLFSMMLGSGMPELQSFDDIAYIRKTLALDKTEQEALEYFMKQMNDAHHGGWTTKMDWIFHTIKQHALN
T3 sequence (P27986 whole entry partner, species assumed): as the sequence (P27986 whole entry partner, species assumed) above

For the molecule `O=c1c2cccn2nc([C@@H]2CCCN2c2ncnc3[nH]cnc23)n1-c1ccccc1` [Compound 4], the “PI3Kβ IH % @ 1 uM” value in assay [1] is reported as 17.4%. Further, the “PI3Kγ IH % @ 1 uM” value in assay [2] was determined as 92.4%. Besides, in assay [3], the “PI3Kα IH % @ 1 uM” value is 2.6%. In addition, the pIC50 was 5.40 in assay [4] and 8.00 in assay [5] (read-out: PI3Kδ IC50). In assay [5], the “PI3Kδ IH % @ 1 uM” value is recorded as 94.1%.

Consider `N#Cc1c[nH]c2ncnc(N3CCC[C@H]3c3nn4cccc4c(=O)n3-c3cccc(Cl)c3)c12` [Compound 15], for which the “PI3Kβ IH % @ 1 uM” value in assay [1] stood at 5.4%. Besides, the “PI3Kγ IH % @ 1 uM” value in assay [2] is given as 72.0%. In assay [2] (read-out: PI3Kγ IC50), the pIC50 was 6.51. Moreover, the “PI3Kα IH % @ 1 uM” value in assay [3] is given as 24.6%. In addition, the “PI3Kδ IH % @ 1 uM” value in assay [5] is given as 100%.
